Test results published in US4057684A, “Alkyl amino-glucopyranoside derivative and process for producing the same” (priority 1975, dated 1977).
“And” between values parts separate entries of the source, which are not always exact repeats. Identical values can stand only once. “Also recorded” adds a separate entry of the source. Like-named read-outs stand apart in the source and are kept apart here.

Assays:
[1] = peripheral white blood cell counts (bone marrow toxicity) and survival in normal male ICR mice; format: in vivo, mouse (ICR)
Method: Such peripheral white blood cell counts were performed as follows: Normal male ICR mice were used in groups of tens and the test compounds for treatment were made into their respective solutions. 2MCαG and 6MCαG were dissolved in physiological saline solutions, while CCNU and GCNU were suspended in 0.5% CMC aqueous solution and 50% PEG aqueous solution, respectively. A single administration at volume of 1 ml per 100 g body weight of animal (0.1 ml/10 g) was given intraperitoneally, and the peripheral white blood cell counts were performed 3, 8 and 15 days after administration of the test compounds.

[2] = cited from earlier work
[3] = cited from earlier work; remark: listed apart in the source
tumor = settings: in vivo; cited from earlier work
[4] = test system: Nakahara-Fukuoka sarcoma (NFS); assay: antitumor effect against Nakahara-Fukuoka sarcoma (NFS) implanted in mice; format: in vivo, mouse (ICR)
Text: (§1) Results of pharmacological studies for amino-glucopyranoside [I] according to the invention are described below. The test compounds which were used included methyl N-carbamyl-N'-(2-chloroethyl)-N'-nitroso-2-amino-2-deoxy-α-D-glucopyranoside and methyl N-carbamyl-N'-(2-chloroethyl)-N'-nitroso-6-amino-6-deoxy-α-D-glucopyranoside (hereinafter abbreviated to 2MCαG and 6MCαG, respectively). The control compounds which were employed were 1-(2-chloroethyl)-3-cyclohexyl-1-nitrosoourea (hereinafter abbreviated to CCNU), which had been widely applied as a control compound in such a pharmacological test of the streptozotocin derivatives, and GCNU referred to previously. The tumor systems which were used were leukemia L-1210, Nakahara-Fukuoka sarcoma, adenocarcinoma-755, ascites sarcoma 180 and Ehrlich ascites carcinoma (hereinafter abbreviated to L-1210, NFS, Ca-755, S-180A and EAC, respectively), and the antitumor activities were determined by a procedure of the National Cancer Center, Tokyo (A. Hoshi et al.: Farumashia 9, 464(1973)). The test animals which were used were ICR and BDF1 mice.
(§2) ^a Treatment was initiated 24 hr after implantation of tumor (day 1):
(§3) D1~5 = qd, day 1~5; D1 = day 1 only.
(§4) ^b T/C is expressed as the tumor weight ratio in solid tumors or tota
(§5) packed cell volume ratio in ascites tumors of treated/control.

[5] = test system: solid as well as ascites tumor systems; assay: antitumor activity in the tumor systems (overall); format: in vivo, mouse; settings: mouse, in vivo
Text: as §1

leukemia L-1210 = assay: increase in life span and survival of leukemia L-1210 implanted mice; format: in vivo, mouse (BDF1)
Text: as §1, §2, §3
^d % increase in life span (mean survival time) over controls.
^e 60 days survivors/total in treated group.

[6] = acute toxicity (LD50) in mice; format: in vivo, mouse (ICR); settings: mouse, in vivo, ICR mice
[7] = test system: Ehrlich ascites carcinoma (EAC); assay: antitumor effect against Ehrlich ascites carcinoma (EAC) implanted in mice; format: in vivo, mouse (ICR)
Text: as §1, §2, §3, §4, §5

[8] = test system: adenocarcinoma-755 (Ca-755); assay: antitumor effect against adenocarcinoma-755 (Ca-755) implanted in mice; format: in vivo, mouse (BDF1)
Text: as §1, §2, §3, §4, §5

bacteria = assay: antibacterial activity, broth dilution method
[9] = blood sugar level / diabetogenic activity; format: in vivo, rat (male Wister)
[10] = test system: ascites sarcoma 180 (S-180A); assay: antitumor effect against ascites sarcoma 180 (S-180A) implanted in mice; format: in vivo, mouse (ICR)
Text: as §1, §2, §3, §4, §5

[11] = 3.2 mg/kg/day ip D1~5, ICR mice
[12] = 6.3 mg/kg/day ip D1~5, ICR mice
[13] = 12.5 mg/kg/day ip D1~5, ICR mice
[14] = 15.0 mg/kg/day ip D1~5, ICR mice
[15] = 20.0 mg/kg/day ip D1~5, ICR mice
[16] = 3.2 mg/kg/day ip D1~5, listed as 2MCaαG
[17] = 3.2 mg/kg/day ip, 5 successive days
[18] = 3.2 mg/kg/day ip D1~5, BDF1 mice
[19] = 6.3 mg/kg/day ip D1~5, BDF1 mice
[20] = 15.0 mg/kg/day ip D1~5, BDF1 mice

CC(=O)OC[C@H]1OC(OC(C)=O)[C@H](NC(=O)N(CCCl)N=O)[C@@H](OC(C)=O)[C@@H]1OC(C)=O (stereo partly drawn) [GCNU, 3-(tetraacetylglucopyranos-2-yl)-1-(2-chloroethyl)-1-nitrosourea, reference compound]
Death rate (death/used) ([1]; 10 mg/kg ip single): 0/10 | Average count of WBC ([1]; 10 mg/kg ip single, day 3): 83.1±4.5 x 10^2 WBC/mm^3 | Average count of WBC ([1]; 10 mg/kg ip single, day 8): 140.3±15.7 x 10^2 WBC/mm^3 | Average count of WBC ([1]; 10 mg/kg ip single, day 15): 116.0±10.0 x 10^2 WBC/mm^3 | Death rate (death/used) ([1]; 20 mg/kg ip single): 6/10 | Average count of WBC ([1]; 20 mg/kg ip single, day 3): 60.4±3.6 x 10^2 WBC/mm^3 | Average count of WBC ([1]; 20 mg/kg ip single, day 8): 131.4±17.4 x 10^2 WBC/mm^3 | Average count of WBC ([1]; 20 mg/kg ip single, day 15): 106.0±9.0 x 10^2 WBC/mm^3 | Death rate (death/used) ([1]; 40 mg/kg ip single): 10/10 | Average count of WBC ([1]; 40 mg/kg ip single, day 3): 33.2±3.3 x 10^2 WBC/mm^3 | Death rate (death/used) ([1]; 60 mg/kg ip single): 10/10 | Average count of WBC ([1]; 60 mg/kg ip single, day 3): 26.5±3.5 x 10^2 WBC/mm^3 | bone marrow toxicity ([2]; in vivo): reduced bone marrow toxicity | leukopenia ([2]; single ip, 15 mg/kg): without causing leukopenia | diabetogenic activity ([3]; test animals): nondiabetogenic activity

CN(N=O)C(=O)N[C@H]1C(O)O[C@H](CO)[C@@H](O)[C@@H]1O (stereo partly drawn) [streptozotocin, N-carbamyl-N'-methyl-N'-nitroso-2-amino-2-deoxy-D-glucopyranose]
antitumor activity (tumor): exhibits an antitumor activity | diabetogenic activity ([3]; in vivo): diabetogenic

CO[C@H]1O[C@H](CO)[C@@H](O)[C@H](O)[C@H]1NC(=O)N(CCCl)N=O [Example 2MCαG, methyl N-carbamyl-N'-(2-chloroethyl)-N'-nitroso-2-amino-2-deoxy-α-D-glucopyranoside]
Activity [4, 11]: - (100~71% = -) | T/C [4, 11]: 86.1% | Activity [4, 12]: + (70~51% = +) | T/C [4, 12]: 55.2% | T/C [4, 13]: 44.3% | Activity [4, 14]: ++ (50~21% = ++) | T/C [4, 14]: 29.2% | Activity [4, 15]: Toxic | died/used [4, 15]: 6/6 | antitumor effect compared with CCNU ([4]; ip, 5 successive days): more effective than CCNU | antitumor activity [5]: activity against solid as well as ascites tumor systems | Death rate (death/used) ([1]; 10 mg/kg ip single): 0/10 | Average count of WBC ([1]; 10 mg/kg ip single, day 3): 74.0±4.6 x 10^2 WBC/mm^3 | Average count of WBC ([1]; 10 mg/kg ip single, day 8): 105.6±4.5 x 10^2 WBC/mm^3 | Average count of WBC ([1]; 10 mg/kg ip single, day 15): 131.8±5.4 x 10^2 WBC/mm^3 | Death rate (death/used) ([1]; 20 mg/kg ip single): 2/10 | Average count of WBC ([1]; 20 mg/kg ip single, day 3): 46.3±9.5 x 10^2 WBC/mm^3 | Average count of WBC ([1]; 20 mg/kg ip single, day 8): 101.0±16.5 x 10^2 WBC/mm^3 | Average count of WBC ([1]; 20 mg/kg ip single, day 15): 129.4±20.1 x 10^2 WBC/mm^3 | Death rate (death/used) ([1]; 40 mg/kg ip single): 10/10 | Average count of WBC ([1]; 40 mg/kg ip single, day 3): 30.8±2.8 x 10^2 WBC/mm^3 | Death rate (death/used) ([1]; 60 mg/kg ip single): 10/10 | Average count of WBC ([1]; 60 mg/kg ip single, day 3): 35.4±2.9 x 10^2 WBC/mm^3 | Death rate (death/used) ([1]; 80 mg/kg ip single): 10/10 | Average count of WBC ([1]; 80 mg/kg ip single, day 3): 32.0±3.8 x 10^2 WBC/mm^3 | incidence of leukopenia ([1]; LD10 doses): comparatively mild with rapid return to pretreatment levels | bone marrow toxicity ([1]; mouse, in vivo): improved bone marrow toxicity | bone marrow toxicity compared with CCNU ([1]; mouse, in vivo): less toxic | bone marrow toxicity compared with GCNU ([1]; mouse, in vivo): equivalent values as GCNU | ILS (leukemia L-1210; 1.0 mg/kg/day ip D1~5): 48% | Survivors (60 days survivors/total) (leukemia L-1210; 1.0 mg/kg/day ip D1~5): 0/6 | ILS (leukemia L-1210; 2.0 mg/kg/day ip D1~5): > 249% | Survivors (60 days survivors/total) (leukemia L-1210; 2.0 mg/kg/day ip D1~5): 1/6 | ILS (leukemia L-1210; 2.0 mg/kg/day po D1~5): > 143% | Survivors (60 days survivors/total) (leukemia L-1210; 2.0 mg/kg/day po D1~5): 1/6 | ILS (leukemia L-1210; 3.2 mg/kg/day ip D1~5): 394% | Survivors (60 days survivors/total) (leukemia L-1210; 3.2 mg/kg/day ip D1~5): 3 out of 6 | ILS (leukemia L-1210; [16]): > 394% | Survivors (60 days survivors/total) (leukemia L-1210; [16]): 3/6 | ILS (leukemia L-1210; 3.2 mg/kg/day po D1~5): > 141% | Survivors (60 days survivors/total) (leukemia L-1210; 3.2 mg/kg/day po D1~5): 1/6 | ILS (leukemia L-1210; 4.0 mg/kg/day ip D1~5): > 349% | Survivors (60 days survivors/total) (leukemia L-1210; 4.0 mg/kg/day ip D1~5): 2/6 | ILS (leukemia L-1210; 6.3 mg/kg ip D1 only): 128% | Survivors (60 days survivors/total) (leukemia L-1210; 6.3 mg/kg ip D1 only): 0/6 | ILS (leukemia L-1210; 6.3 mg/kg/day ip D1~5): > 198% | Survivors (60 days survivors/total) (leukemia L-1210; 6.3 mg/kg/day ip D1~5): 1/6 | ILS (leukemia L-1210; 6.3 mg/kg/day po D1~5): 343% and > 343% | Survivors (60 days survivors/total) (leukemia L-1210; 6.3 mg/kg/day po D1~5): 2 out of 6 and 2/6 | ILS (leukemia L-1210; 8.0 mg/kg ip D1 only): > 432% | Survivors (60 days survivors/total) (leukemia L-1210; 8.0 mg/kg ip D1 only): 3/6 | ILS (leukemia L-1210; 10.0 mg/kg ip D1 only): > 717% | Survivors (60 days survivors/total) (leukemia L-1210; 10.0 mg/kg ip D1 only): 6/6 | ILS (leukemia L-1210; 10.0 mg/kg/day ip D1~5): > 190% | Survivors (60 days survivors/total) (leukemia L-1210; 10.0 mg/kg/day ip D1~5): 1/6 | ILS (leukemia L-1210; 12.5 mg/kg/day ip D1~5): > 160% | Survivors (60 days survivors/total) (leukemia L-1210; 12.5 mg/kg/day ip D1~5): 1/6 | ILS (leukemia L-1210; 12.5 mg/kg/day po D1~5): 211% | Survivors (60 days survivors/total) (leukemia L-1210; 12.5 mg/kg/day po D1~5): 0/6 | ILS (leukemia L-1210; 20.0 mg/kg ip D1 only): > 717% | Survivors (60 days survivors/total) (leukemia L-1210; 20.0 mg/kg ip D1 only): 6/6 | ILS (leukemia L-1210; 20.0 mg/kg/day ip D1~5): 58% | Survivors (60 days survivors/total) (leukemia L-1210; 20.0 mg/kg/day ip D1~5): 0/6 | ILS (leukemia L-1210; 25.0 mg/kg ip D1 only): > 539% | Survivors (60 days survivors/total) (leukemia L-1210; 25.0 mg/kg ip D1 only): > 4/6 | single dose compared with five dose schedule (leukemia L-1210; ip): might be more effective than a five dose schedule | activity against L-1210 compared with CCNU and GCNU (leukemia L-1210; mouse, in vivo): more active against L-1210 | ILS (leukemia L-1210; single 10-20 mg/kg ip): 717% | animals survived (leukemia L-1210; single 10-20 mg/kg ip): all 6 animals survived | LD50 ([6]; 5 doses, qd): 16 mg/kg | LD50 ([6]; single dose): 48 mg/kg | Activity [7, 11]: +++ (10~0% 10~0% = +++) | T/C [7, 11]: 0% | accumulation of ascites tumor cells [7, 17]: no accumulation of ascites tumor cells was observable | T/C [7, 13]: 0% | Activity [8, 18]: ++ (50~21% = ++) | T/C [8, 18]: 22.4% | Activity [8, 19]: +++ (20~0% = +++) | T/C [8, 19]: 9.6% | T/C ([8]; 12.5 mg/kg/day ip D1~5, BDF1 mice): 3.3% | Activity [8, 20]: Toxic | T/C [8, 20]: 0.3% | died/used [8, 20]: 6/6 | antitumor effect compared with CCNU ([8]; ip, 5 successive days): more effective than CCNU | antibacterial activity (bacteria): without any antibacterial activities; also recorded: free from diabetogenic and antibacterial activities | blood sugar level ([9]; one-month administration, qd, day 1-30, male Wister rat, glucose oxidase method): neither elevation nor depression tendencies | diabetogenic activity ([9]; rat, in vivo): free from diabetogenic | Activity [10, 11]: +++ (10~0% 10~0% = +++) | T/C [10, 11]: 0% | accumulation of ascites tumor cells [10, 17]: no accumulation of ascites tumor cells was observable | T/C [10, 13]: 0%
